Experimental data published in patent US12077495B2 (priority 2018, dated 2024).

Assays:
[1] = target: T1, high-affinity forebrain binding sites (Mus musculus, UniProt P11798); test: Ex vivo 3H-A radioligand binding, autoradiography of mouse brain sections; assay type: in vivo, mice; conditions: 5 MBq per mouse i.p.; 30 min
T1 construct: from tissue; host or cells: C57BL/6J mouse brain (hippocampus, cortex) after i.p. injection of 3H-A
Experimental: ^3H-A was used to perform ex vivo binding to C57BL/6J mice. Thus, in a design with 5 mice per group, ^3H-A (5 MBq per mouse) was injected i.p. After 30 min, the brains were dissected and autoradiography performed.

[2] = target: T2, CAMK2A (Rattus norvegicus, UniProt P11275); test: biochemical; assay type: binding; conditions: non-specific: 1 mM GHB
T2 construct: host or cells: HEK293T
Experimental: Cells were transfected with rat CAMK2A (Origene construct RR201121) or rat CAMK2B (Origene construct RR200520) using PolyFect (Qiagen, West Sussex, UK) according to the manufacturer's protocol. Whole cell homogenates were prepared 48 hr post-transfection by washing the cells with ice-cold 1×PBS and harvesting by scraping. Cells were collected and centrifuged for 10 min at 1000×g. Cell pellets were resuspended in ice-cold 1×PBS and homogenized using 2×1 mm zirkonium beads in a bullet blender for 20 s at max speed (NextAdvance, NY, USA). Homogenates were cleared by centrifugation (10 min, 4° C., 14.000×g). Protein concentration was determined using the Bradford protein assay. 150-200 μg protein was incubated with 5 nM ^3H-A and test compound in 1 ml total volume for 1 hr at 0-4° C. […] Proteins were then precipitated by addition of ice-cold acetone (4× of the assay volume), vortexing and incubation at −20° C. for 1 hr. Proteins were filtrated rapidly through GF/C unifilters (Whatman) and washed. The dried filters were added scintillation liquid and radioactivity measured on a Tricarb 2100 Scintillation counter (Packard).
A) Principle of photoaffinity labelling workflow. […] After introduction of biotin through a Staudinger-Bertozzi ligation to EZ-Link™ Phosphine-PEG3-Biotin (ThermoFisher Scientific), the biotin-labelled proteins were affinity-purified and subjected to LC-MS/MS analysis. […] C)^3H-A binding to cortical membranes from CAMK2A and CAMK2B knock-out mouse brains.
Human/rat CAMK2A expressed in HEK cells was assayed in an in-house established ^3H-A filtration binding assay performed on whole cell lysates of CAMK2A-transfected HEK293T cells.

[3] = target: T3, CAMK2B (Rattus norvegicus, UniProt P08413); test: 3H-A binding to recombinant CAMK2B expressed in HEK293T cells; conditions: HEK293T whole cell homogenate
T3 construct: host or cells: HEK293T
Experimental: HEK293T were cultured using standard conditions, using Dulbecco's modified Eagle Medium with GlutaMax, 10% fetal bovine serum and 1% penicillin-streptomycin, and incubated at 37° C. in a humidified atmosphere of […] and 5% CO2. Cells were transfected with rat CAMK2A (Origene construct RR201121) or rat CAMK2B (Origene construct RR200520) using PolyFect (Qiagen, West Sussex, UK) according to the manufacturer's protocol. Whole cell homogenates were prepared 48 hr post-transfection by washing the cells with ice-cold 1×PBS and harvesting by scraping. Cells were collected and centrifuged for 10 min at 1000×g. Cell pellets were resuspended in ice-cold 1×PBS and homogenized using 2×1 mm zirkonium beads in a bullet blender for 20 s at max speed (NextAdvance, NY, USA). Homogenates were cleared by centrifugation (10 min, 4° C., 14.000×g). Protein concentration was determined using the Bradford protein assay. 150-200 μg protein was incubated with 5 nM ^3H-A and test compound in 1 ml total volume for 1 hr at 0-4° C. […] Proteins were then precipitated by addition of ice-cold acetone (4× of the assay volume), vortexing and incubation at −20° C. for 1 hr. Proteins were filtrated rapidly through GF/C unifilters (Whatman) and washed. The dried filters were added scintillation liquid and radioactivity measured on a Tricarb 2100 Scintillation counter (Packard). […]

[4] = tested on: rodents; test: Observation of acute toxicity or sedation in rodents; assay type: in vivo; conditions: doses as high as 500 mg/kg
[5] = peripheral administration; cited from earlier work

T3 sequence (P08413 whole entry): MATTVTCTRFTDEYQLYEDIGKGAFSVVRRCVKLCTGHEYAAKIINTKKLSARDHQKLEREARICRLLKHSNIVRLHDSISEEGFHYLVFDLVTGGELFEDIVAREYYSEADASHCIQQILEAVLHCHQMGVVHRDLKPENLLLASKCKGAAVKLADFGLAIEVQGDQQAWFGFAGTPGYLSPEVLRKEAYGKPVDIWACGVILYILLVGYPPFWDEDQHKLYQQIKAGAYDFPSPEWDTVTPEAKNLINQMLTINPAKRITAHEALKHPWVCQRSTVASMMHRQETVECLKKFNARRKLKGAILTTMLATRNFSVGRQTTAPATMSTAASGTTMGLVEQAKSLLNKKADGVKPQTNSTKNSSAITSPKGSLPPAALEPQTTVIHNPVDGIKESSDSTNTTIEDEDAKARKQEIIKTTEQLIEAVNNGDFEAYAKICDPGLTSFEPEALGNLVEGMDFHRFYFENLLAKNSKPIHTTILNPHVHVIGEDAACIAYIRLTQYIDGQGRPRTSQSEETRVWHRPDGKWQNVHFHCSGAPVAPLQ
T2 sequence (P11275 whole entry): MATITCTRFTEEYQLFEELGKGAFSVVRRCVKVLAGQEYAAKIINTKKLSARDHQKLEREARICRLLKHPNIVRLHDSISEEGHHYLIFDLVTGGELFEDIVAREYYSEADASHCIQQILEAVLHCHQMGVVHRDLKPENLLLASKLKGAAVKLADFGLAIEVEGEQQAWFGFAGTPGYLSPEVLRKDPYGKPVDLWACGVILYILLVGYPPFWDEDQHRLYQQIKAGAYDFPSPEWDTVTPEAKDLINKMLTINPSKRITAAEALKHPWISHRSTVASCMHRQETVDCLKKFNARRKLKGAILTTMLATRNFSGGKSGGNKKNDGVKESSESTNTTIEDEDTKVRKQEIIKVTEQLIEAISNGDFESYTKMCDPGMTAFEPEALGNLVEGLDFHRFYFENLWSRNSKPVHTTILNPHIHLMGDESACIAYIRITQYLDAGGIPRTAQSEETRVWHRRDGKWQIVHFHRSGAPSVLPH
T1 sequence (P11798 whole entry): as the sequence (P11275 whole entry) above

[3H]C1(O)C=C(C(=O)O)CC1 (centres unmarked) [^3H-A]
ex vivo specific binding in hippocampus and cortex vs cerebellum [1]: Significant specific binding levels | specific binding to CAMK2A-transfected HEK293T whole cell homogenate [2]: 87% | specific binding at CAMK2B [3]: no specific binding

O=C([O-])C1=CC(O)CC1.[Na+] (centres unmarked) [sodium salt of A]
acute toxicity or sedation [4]: no apparent observations of acute toxicity or sedation | brain entry [5]: readily enters the brain
